Patent US10864229B2, “Use of nitrite salts in chronic ischemia” (priority 2007, dated 2020)
Where two headings read alike, the source gives them in different places.

Columns and labels:
[1] = tested on: endothelial cell proliferation in ischemic gastrocnemicus tissues; test: Endothelial cell proliferation (Ki67 staining) in gastrocnemius tissue; type: in vivo, mouse (C57BL/6J); conditions: day 3
Source text: (§1) Animals and Reagents. Unless otherwise stated, male wild type (C57BL/6J) mice weighing 20-25 gm and age 2-3 months were used. The mice were bred and housed at the Association for Assessment and Accreditation of Laboratory Animal Care, International-accredited LSUHSC-Shreveport animal resource facility and maintained according to the National Research Council's Guide for Care and Use of Laboratory Animals. All experimental protocols were approved by the LSU Institutional Animal Care and Use Committee. Sodium nitrite, sodium nitrate, phosphate buffered saline (PBS), and all other chemicals were purchased from Sigma Chemical (St. Louis, Mo.). Hind-Limb Ischemia Model. Hind limb ischemia was induced by ligating the left common femoral artery proximal to origin of profunda femoris artery according to Senthilkumar, A., Smith, R. D., Khitha, J., Arora, N., Veerareddy, S., Langston, W., Chidlow, J. H., Jr., Barlow, S. C., Teng, X., Patel, R. P., et al. 2007. Arterioscler Thromb Vase Biol 27:1947-1954. Mice were anesthetized with intraperitoneal injection of ketamine (100 mg/kg) and xylazine (8 mg/kg); surgery was performed […] aseptic conditions. The common femoral vein and femoral nerve were dissected away from the artery. Two ligatures were placed in the common femoral artery proximal to the profunda femoris artery and then transected between the two ligations. The incision was then closed and the ligation was immediately verified by laser Doppler measurement of tissue blood flow.
The effect of sodium nitrite on endothelial cell proliferation in ischemic gastrocnemicus tissues was analyzed in the hind-limb ischemia model of Example 1.

[2] = tested on: mouse hind-limb ischemia model; test: Vascular density (CD31/DAPI) of gastrocnemius muscle tissue; type: in vivo, mouse (C57BL/6J)
Source text: as §1
Arterioscler Thromb Vase Biol 27:1947-1954.

[3] = tested on: mouse hind-limb ischemia model; type: in vivo, mouse (C57BL/6J)
Protocol: (§2) Laser Doppler measurements of tissue blood flow. The Vasamedics Laserflo BPM2 deep tissue penetrating laser doppler device was used to measure hind limb blood flow. The tip of laser probe was placed with stable positioning using a probe stand over the medial calf muscle of mice. Readings were recorded in ml of blood flow per 100 g tissue per minute from non-ischemic and ischemic limbs. Daily blood flow measurements were taken before the first nitrite or nitrate injection of a 24 hour period in order to obtain representative steady state changes in perfusion. Percent change in tissue blood flow was determined by dividing ischemic limb blood flow by non-ischemic limb blood flow and multiplied by 100. In a separate series of experiments, blood flow was also measured within 30 seconds after nitrite or nitrate administration to assess acute changes in blood flow.
Stimulation of angiogenesis alone during chronic ischemia is generally insufficient for restoring tissue perfusion. Increased arteriogenesis through the recruitment and differentiation of smaller arterioles is important to supply newly formed microvasculature. Moreover, an acute increase in vascular shear stress due to increased blood flow is a critical mediator of arteriogenesis. We examined the effect of 165 μg/kg sodium nitrite on acute changes (30 sec) in ischemic and nonischemic tissue perfusion according to the method in Example 1. Ten mice were used per treatment group.

[4] = tested on: mouse hind-limb ischemia model; test: Laser Doppler hind-limb blood flow, chronic treatment in hind-limb ischemia model; type: in vivo, mouse (C57BL/6J)
Source text: as §1, §2
We examined the effect of a range of sodium nitrite doses on ischemic tissue blood flow in the mouse hind-limb ischemia model described in Example 1. Sodium nitrite was administered via intraperitoneal injection twice a day in a dose range of 8.25-3,300 μg/kg; 15 mice were used per treatment group. Blood flow was measured according the laser Doppler method of Example 1. Changes in ischemic tissue perfusion were determined by measuring ischemic limb blood flow which was divided by the respective contra-lateral non-ischemic limb blood flow to calculate a percent change for each animal.

[5] = Protocol: (§3) Measurement of Nitrite, NO Metabolite, Tissue cGMP, and eNOS Protein Levels. Nitrite and tissue NO metabolite levels tissue (nitrosothiol, C- or N-nitroso compounds, or iron-nitrosyl proteins which are collectively referred to SNO+XNO) whether were measured using chemiluminescence techniques according to Lang, J. D., Jr., Teng, X., Chumley, P., Crawford, J. H., Isbell, T. S., Chacko, B. K., Liu, Y., Jhala, N., Crowe, D. R., Smith, A. B., et al. 2007. J Clin Invest. 117:2583-2591. Gastrocnemius muscle tissue cGMP levels were determined using the cGMP ELISA from Cayman Chemical (Ann Arbor, Mich.) according to the manufacturer's directions. Specimens were collected within 2 min after injection of either PBS or sodium nitrite. Total eNOS protein levels in hind-limb tissue were determined by Western blot analysis.
(§4) Analysis of blood and tissue nitrite levels in nitrate-treated and control animals was performed according to the method in Example 1.

eNOS protein = conditions: 165 μg/kg
Protocol: as §3, §4

cGMP = conditions: 165 μg/kg; day 3 or 7
Protocol: as §3

SNO+XNO = conditions: 165 μg/kg
Protocol: as §3
The effect of nitrite treatment on levels of the NO metabolites, SNO and XNO was measure according to the method in Example 1. Twenty mice were used per treatment group.

[6] = tested on: ischemic hind limb of Db/Db diabetic mice
Protocol: We evaluated the effect of sodium nitrite treatment on ischemic hind limb blood flow in a diabetic mouse model. Permanent femoral artery ligation was performed on the left hind limb of Db/Db diabetic mice (n=5 per treatment group) according to the methods in Examples 1 and 2, except that the mice were anesthetized with 2% inhaled isofluorane. […] Blood flow recovery was monitored throughout the study using deep tissue penetrating laser Doppler according to the method in Example 1.

[7] = tested on: ischemic hind limb of C57BL/6J mice; conditions: 165 μg/kg single I.P. bolus 45 minutes after ligation; 7 day period
Protocol: Permanent femoral artery ligation was performed on the left hind limb of C57BL/6J mice (n=3 per treatment group) according to the method in Example 1. A single bolus injection of either PBS or sodium nitrite (165 μg/kg) was given I.P. 45 minutes after completing the ligation. Blood flow recovery was monitored every other day over a 7 day period to evaluate the efficacy of single bolus injection therapy. […] “Day 0 Pre” on the x-axis refers to blood flow on the day of ligation before the ligation was performed; “Day 0 Post” on the x-axis refers to blood flow on the day of ligation after the ligation was performed.

[8] = tested on: excisional wounds in C57BL/6J mice; conditions: for percent wound surface remaining vs PBS-treated controls: 165 μg/kg I.P. b.i.d.
Protocol: Full thickness excisional wounds were created using a 4 mm punch biopsy device. C57BL/6J mice were anesthetized according to the method in Example 1. Wounds were created by pinching the loose skin and punching a half circle biopsy to obtain a uniform 4 mm diameter wound (n=4 per treatment group). […] Wound diameter was measured using digital calipers and plotted as the percent wound surface area remaining at each successive day.

[9] = tested on: mouse hind-limb ischemia model
Protocol: Vascular casting. Hind limb vascular casting of ischemic limbs was performed using Microfil silicone injection MV120. Before vascular casting, papaverine (5 ng/ml) and adenosine (1 mg/ml) were given intravenously to increase perfusion of the casting resin. Briefly, the abdominal aorta proximal to the femoral artery bifurcation was ligated with 5.0 silk suture material and cannulated caudal to the ligation using PESO tubing held in place with a silk ligature. 400 μl of Microfil was infused into the aortic catheter and allowed to set in situ for 16 hours at 4° C. Hind limb muscle tissue was cleared by incubating tissues in graded glycerol solutions of 40%, 60%, 80%, and 100% for 24 hours each. Vascular casts were subsequently photographed using a stereomicroscope.
To further evaluate arteriogenesis activity, we performed hind-limb ligations distal to the profunda femoris and proximal to the knee to more easily distinguish changes in the arterial supply. […] Arterial casts were made according to the method in Example 1.

[10] = tested on: ischemic hind limb of C57BL/6J mice; conditions: 165 μg/kg I.P. b.i.d. started day 5 post-ligation
Protocol: We also evaluated the effect of delaying chronic sodium nitrite treatment on restoration of hind limb blood flow. Permanent femoral artery ligation was performed on the left hind limb of C57BL/6J mice (n=6 per treatment group) as described in Example 1. […] Blood flow recovery was monitored throughout the study using deep tissue penetrating laser Doppler as described in Example 1. […] “Day 0 Pre” on the x-axis refers to blood flow on the day of ligation before the ligation was performed; “Day 0 Post” on the x-axis refers to blood flow on the day of ligation after the ligation was performed.

## CC1(C)N([O])C(c2ccc(C(=O)O)cc2)=[N+]([O-])C1(C)C [carboxy PTIO, 2-(4-Carboxyphenyl)-4,4,5,5-tetramethylimidazoline-1-oxyl-3-oxide, reference compound]
[1]; cPTIO plus sodium nitrite, ischemic tissue
  effect of cPTIO on nitrite-induced increase in Ki67 to CD31 colocalization: blocked
[1]; carboxy PTIO plus sodium nitrite, ischemic tissue
  effect of carboxy PTIO on nitrite-induced increase in Ki67 nuclear localization: blocked
[2]; cPTIO plus sodium nitrite 165 μg/kg, days 3 and 7
  effect of cPTIO cotreatment on nitrite augmentation of angiogenesis in ischemic hind limbs: prevented nitrite augmentation of angiogenesis
[3]; mouse, in vivo
  effect of cPTIO on nitrite-dependent acute tissue blood flow change: significantly blunted
[4]; carboxy PTIO 1 mg/kg daily plus sodium nitrite 165 μg/kg
  effect of NO scavenger on ability of sodium nitrite to restore ischemic limb blood flow: significantly attenuated

## O=[N+]([O-])[O-].[Na+] [sodium nitrate, reference compound]
[4]; lowest dose 8.25 μg/kg, by days 5 and 7
  ischemic limb blood flow: augmented ischemic limb blood flow

## O=NO [sodium nitrite]
[5]; 165 μg/kg chronic therapy, days 3 and 7
  blood levels of nitrite: significantly decreased over time
[5]; 165 μg/kg, day 3, ischemic tissue
  tissue nitrite levels: significantly increased
[5]; 165 μg/kg, day 7
  tissue nitrite levels, nitrite-treated vs PBS-treated: did not differ significantly
eNOS protein; day 3, ischemic hind-limb tissue
  eNOS protein expression: significantly decreased
eNOS protein; day 3, nonischemic hind-limb tissue
  eNOS protein expression: without altering expression
eNOS protein; day 7, ischemic tissue
  eNOS protein expression: no effect
eNOS protein; day 7, nonischemic tissue
  eNOS protein expression: reduced
cGMP
  tissue cGMP levels: neither 165 μg/kg sodium nitrite nor PBS significantly altered
SNO+XNO; day 3
  tissue SNO+XNO levels: Neither sodium nitrite (165 μg/kg) nor PBS significantly altered
SNO+XNO; day 7, compared to PBS
  SNO+XNO levels in ischemic tissue: significantly increased
[1]; 165 μg/kg, ischemic tissue
  Ki67 nuclear localization (colocalization with DAPI): significantly increased
  Ki67 to CD31 colocalization: significantly increased
[1]; 165 μg/kg, non-ischemic tissue
  Ki67 nuclear localization (colocalization with DAPI): but not non-ischemic tissues
[2]; 165 μg/kg, day 7, compared to PBS or sodium nitrate controls
  endothelial staining of CD31 in ischemic muscle tissue: much more abundant
[2]; 165 μg/kg, day 7, nonischemic gastrocnemius
  nonischemic tissue vascular density: did not significantly alter
[2]; 165 μg/kg, days 3 and 7, compared to PBS or sodium nitrate
  vascular density of ischemic gastrocnemius muscle: significantly increased
[2]; 3,300 μg/kg compared to 165 μg/kg
  augmentation of ischemic tissue vascular density, high dose vs low dose: less potent
[3]; 165 μg/kg, days 3 and 7
  acute blood flow change under chronic nitrite therapy: lesser, yet still significant, increase
[3]; mouse, in vivo
  acute enhancement of ischemic tissue blood flow: 92.3±18%
  duration of increased blood flow after injection: > 10 min
[6]; 165 μg/kg I.P. b.i.d. started post-ligation
  ischemic hind-limb blood flow recovery in diabetic mice: restored
[6]; 165 μg/kg I.P. b.i.d., all time points analyzed
  blood flow in ischemic hind limbs vs PBS-treated controls: significantly greater
[6]; 165 μg/kg I.P. b.i.d., by the end of the study
  blood flow in ischemic hind limbs relative to preligation: approached preligation levels
[7]
  ischemic hind limb blood flow recovery after single bolus: did not restore
[8]; 165 μg/kg I.P. b.i.d. from wounding, 4 mm wound
  excision wound healing: enhanced
[8]; first six days of the study
  percent wound surface remaining vs PBS-treated controls: significantly less
[8]; remaining four days
  percent wound surface remaining vs PBS-treated controls: lower
[4]; 165 μg/kg i.p. twice a day
  temporal efficacy on ischemic blood flow compared to higher and lower doses: optimal temporal efficacy
[4]; 165 μg/kg i.p., nonischemic limb
  hind limb blood flow in the nonischemic limbs: neither PBS nor sodium nitrite altered
[4]; 165 μg/kg injection
  blood flow after injection in hind limbs ischemic for 24 h: enhanced blood flow
[4]; 8.25, 16.5, 165 and 3,300 μg/kg i.p. twice a day, by day 3 post ligation, progressively increased by day 7, vs PBS
  percentage blood flow in ischemic hind limbs: increased the percentage blood flow
[9]; day 7, vascular casting
  collateral vessels in arterial cast of ischemic limb: Numerous collateral vessels
[9]; ligation distal to profunda femoris, vs PBS-treated controls
  number of arterial branch points: significantly greater
[10]
  ischemic hind limb blood flow recovery with delayed therapy: restored
